US9486461B2, “Methods and compositions for inducing apoptosis by stimulating ER stress” (UNIVERSITY OF SOUTHERN CALIFORNIA, priority 2007, dated 2016)

Legend:
[1] = test system: CHOP, GRP78, caspase 4 in U251 glioblastoma cells; assay: Western blot of ER stress indicators in U251 cells; format: cell-based, human; details: U251, increasing concentrations, 24 hours
Procedure: U251 glioblastoma cells were cultured in the presence of 1 μM thapsigargin (Tg) or 60 μM DMC for various times, as indicated. Total cell lysates were prepared and analyzed by Western blot with specific antibodies to the ER stress proteins GRP78, CHOP, and caspase 4 (Casp 4). Actin was used as a loading control.
Shown are (A) time kinetics at 50 μM of each drug, and (B) concentration dependence after 15 hours of incubation.
Shown are (FIG. 7A) time kinetics at 50 μM of each drug, and (FIG. 7B), concentration dependence after 15 hours of incubation.
U251 glioblastoma cells were cultured for 24 hours in the presence of increasing concentrations of (A) bortezomib (BZM) or (B) DMC. Total cell lysates were analyzed by Western blot with specific antibodies to ubiquitin, GRP78, CHOP, and caspase 4. Actin was used as a loading control.
Total cell lysates were prepared by lysis of cells with radioimmunoprecipitation assay buffer (28), and protein concentrations were determined using the bicinchoninic acid protein assay reagent (Pierce, Rockford, Ill.). For Western blot analysis, 50 Ag of each sample were processed as described (29). The primary antibodies were purchased from Cell Signaling Technologies (Beverly, Mass.), Cayman Chemical (Ann Arbor, Mich.), or Santa Cruz Biotechnology, Inc. (Santa Cruz, Calif.) and used according to the manufacturer's recommendations. The secondary antibodies were coupled to horseradish peroxidase and detected by chemiluminescence using the SuperSignal West substrate from Pierce. All immunoblots were repeated at least once to confirm the results.
(§1) Total cell lysates were prepared and analyzed by Western blot analysis as described earlier (19). Immunohistochemical analysis of protein expression in tumor tissues was performed with the use of the Vectastain avidin-biotin complex method kit (Vector Laboratories) as described previously (32). The primary antibodies were purchased from Cell Signaling Technology or Santa Cruz Biotechnology, Inc. and used according to the manufacturers' recommendations. All immunoblots and stainings were repeated at least once to confirm the results.

U251 glioblastoma cells = assay: MTT assay, U251; format: cell-based, human; details: Homo sapiens, U-251; U251, 48 h, MTT; read-out: IC50 (50% inhibition of cell growth)
Procedure: U251 glioblastoma cells were treated with different drugs, and various parameters of cell growth and cell death were comparatively analyzed. As controls, cells remained either non-treated (Co) or were treated with the solvent DMSO alone. (FIG. 8A) Cells were treated with 30 or 50 μM DMC for 48 hours and the effects on cell growth/survival and on cell death were determined by various assays. […] Below the three panels, the expression levels of the ER stress indicators CHOP, GRP78, and caspase 4 at the end of the 48 hour drug treatment is shown, as determined by Western blot analysis with specific antibodies (actin served as a loading control. (FIG. 8B) Cells were treated with various concentrations of different drugs for 48 hours, as indicated, and cell death was measured with the cell death ELISA kit. (FIG. 8C) Cells were treated with DMC or various coxibs and traditional NSAIDs for 48 hours, as indicated, and cell growth and survival was determined with the conventional MTT assay (control, non-treated cells were set at 100%). MTT assays were performed in 96-well plates with the use of 3.0-8.0×10^3 cells per well as described in detail elsewhere (34). In parallel, the expression levels of CHOP and GRP78 protein were determined by Western blot analysis. […]
(§2) 3-(4,5-Dimethylthiazol-2-yl)-2,5-diphenyltetrazolium bromide (MTT) assays were performed in 96-well plates with the use of 3.0×10^3 to 8.0×10^3 cells per well as described in detail elsewhere (19).

[2] = test system: CHOP protein in U87 glioblastoma tumor tissue; assay: Immunohistochemical staining for CHOP in xenograft tumor tissue; format: in vivo, nude mice; details: U87MG xenograft, 1 mg/kg BZM and 7.5 mg/kg DMC individually or in combination, 50 h
Excerpt: In all cases, representative sections are shown.
Immunohistochemical analysis of protein expression in tumor tissues was done with the use of the Vectastain avidin-biotin complex method kit (Vector Laboratories, Burlingame, Calif.) according to the manufacturer's instructions. This procedure uses biotinylated secondary antibodies and a preformed avidin: biotinylated enzyme complex that has been termed the avidin-biotin complex method technique. As the primary antibody, we used anti-CHOP antibody (Santa Cruz Biotechnology) diluted 1:100 in 2% normal goat blocking serum.

[3] = test system: U87MG glioblastoma cell line; assay: MTT assay, U87MG; format: cell-based; details: Homo sapiens, U-87 MG, 48 h, read-out: IC50 (50% inhibition of cell growth)
Procedure: (§3) For comparison purposes to the known anti-multiple myeloma effects of bortezomib, the RPMI/8226 multiple myeloma cell line was included in (A).
as §2

[4] = test system: T98G glioblastoma cell line; assay: MTT assay, T98G; format: cell-based; details: Homo sapiens, 48 h, read-out: IC50 (50% inhibition of cell growth)
Procedure: as §3, §2

[5] = test system: LN229 glioblastoma cell line; assay: MTT assay, LN229; format: cell-based, human; details: Homo sapiens, LN-229, LN229, 48 h, read-out: IC50 (50% inhibition of cell growth)
Procedure: as §3, §2

[6] = test system: RPMI/8226 multiple myeloma cell line; assay: MTT assay, RPMI/8226; format: cell-based; details: RPMI/8226, 48 h, not more sensitive than the glioblastoma cell lines
Procedure: as §3, §2

LN229 cells = assay: Colony formation assay, LN229; format: cell-based, human; details: LN229: 5 nM BZM, 60 μM CXB, 40 μM DMC, alone or combined; 48 hours, colonies two weeks thereafter
Procedure: Representative sections are shown. (B) Quantitative analysis of combination drug effects. […] Cell viability was determined by trypan blue exclusion assay.
The different small interfering RNAs (siRNA) were synthesized at the microchemical core laboratory of the University of Southern California/Norris Comprehensive Cancer Center; their sequences are described in ref. 32. Transfections of cells with these siRNAs and subsequent analysis of cell survival by colony formation assay have been described in detail elsewhere (32).

[7] = test system: polyubiquitinated proteins in U251 cells; assay: Western blot of polyubiquitinated proteins, U251; format: cell-based, human; details: U251, increasing concentrations, 24 hours
Procedure: Total cell lysates were analyzed by Western blot with specific antibodies to ubiquitin, GRP78, CHOP, and caspase 4. Actin was used as a loading control. […] Note that in the caspase 4 blots several non-specific background bands were observed (consistent with similar observations in the literature); the specific bands were identified with the use of various controls (not shown) and comparison to the literature.
as §1

U87 glioblastoma tumors = assay: TUNEL assay of xenograft tumor tissue; details: U87MG xenograft, 1 mg/kg BZM and 7.5 mg/kg DMC individually or in combination, 50 h

CC(C)C[C@H](NC(=O)[C@H](Cc1ccccc1)NC(=O)c1cnccn1)B(O)O [bortezomib]
expression of GRP78 and CHOP [1]: increased expression of GRP78 and CHOP
IC50 (U251 glioblastoma cells): ~10 nM
CHOP expression in tumor tissue [2]: larger fraction of CHOP-positive cells
IC50 [3]: ~10 nM
IC50 [4]: ~10 nM
IC50 [5]: < 5 nM
sensitivity of RPMI/8226 cells [6]: high sensitivity
reduction of colony number (LN229 cells): ~50%
accumulation of polyubiquitinated proteins [7]: highly elevated levels of polyubiquitinated proteins
TUNEL staining of tumor tissue (U87 glioblastoma tumors): increased TUNEL staining
